# Laboratory results reported in patent US20160287554A1, “Small Molecule Metal-Activated Protein Inhibition” (University of South Florida, priority 2015, published 2016).
# Several values for one entry are separate records, joined by “and”; a condition that tells them apart may be missing. Identical values can stand only once.
# Target: 20S proteasome (Homo sapiens, UniProt P28074)
# Assay: 20S proteasome chymotrypsin-like activity assay, cleavage of suc-leu-leu-val-tyr-AMC (fluorescence), with or without copper chloride
# Type: biochemical
# From the text: Pro-drug compounds, according to embodiments of the invention, include: 3,4-dihydroxybenzoic acid; galloflavin; 2-{[(carbamoylsulfanyl)acetyl]amino}benzoic acid; 6,7-Dihydroxycoumaranone; 3,6-bis(hydroxymethyl)pyridazin-4(1H)-one; and 4′,5,7-trihydroxyisoflavone, as shown in FIG. 1. These compounds, and analogs thereof, can act individually or can be used in combination. These compounds, and similar compounds, are capable of binding copper ions and facilitating inhibition of the proteasome. These compounds, and similar compounds, are safe and efficacious theranostics and/or drugs to detect and/or treat cancers. These compounds are from the NCI Diversity Set 3. Preliminary identification of these compounds as potential Cu-complexes with the proteasome was conducted using an in silico screening method, according to an embodiment of the invention, for example, with graphic representations of the calculated docking of the pro-drugs of FIG. 1 with copper ion and the proteasome, as shown in FIGS. 2-7. The modeling method indicates the potential of candidates as the pro-drugs, which are tested experimentally to confirm their efficiency using an in vitro experimental assay that tests for inhibition of the chymotrypsin-like activity of the 20S proteasome.
# A Beckman Coulter Biomek FX^P Lab Automation Workstation was used for automating the assays. A Perkin Elmer EnVision 2102 multilabel plate reader was used to read the plates by fluorescence measurements. Assays were performed in 384 well black Nunc plates. Each compound (2 μl in DMSO), when tested without copper chloride was added to 28 μl of buffer (50 mM Tris at pH 7.6 and 37° C.), with 20 μM, 10 μl 20S proteasome and 10 μl of suc-leu-leu-val-tyr-AMC as the substrate (purchased from Boston Biochem), and the rate of substrate cleavage by 20S proteasome activity was determined. In the presence of copper, the buffer amount was decreased to 25 μl and 3 μl copper chloride was used for chelation with the compound for testing in the presence of copper. To allow chelation of copper to the compound, the plate was allowed to sit for 40 minutes with gentle shaking. The overall volume per well was held at 50 μL. The compounds and substrate were initially dissolved in 100% DMSO, but the final concentration of DMSO per well plate was reduced to less than 2% following subsequent dilutions. Plates were incubated at 37° C. for 2 hours. For dose response curves, the concentrations of copper chloride and a pro-drug compound, were varied to get optimal activity. The plates were read with 340 nm excitation and 460 nm emission using the plate reader. All liquid transfers to the plates were automated using the Biomek workstation.
# [1] = NSC 37408 0.01 uM, CuCl2 0.01 uM
# [2] = NSC 37408 0.01 uM, CuCl2 0.05 uM
# [3] = NSC 37408 0.01 uM, CuCl2 0.1 uM
# [4] = NSC 37408 0.01 uM, CuCl2 0.5 uM
# [5] = NSC 37408 0.02 uM, CuCl2 0.01 uM
# [6] = NSC 37408 0.02 uM, CuCl2 0.05 uM
# [7] = NSC 37408 0.02 uM, CuCl2 0.1 uM
# [8] = NSC 37408 0.02 uM, CuCl2 0.5 uM
# [9] = NSC 37408 0.2 uM, CuCl2 0.01 uM
# [10] = NSC 37408 0.2 uM, CuCl2 0.05 uM
substance,measurement,setting,value
"6,7-dihydroxycoumaranone [NSC 37408]",% Activity,"NSC 37408 0.01 uM, CuCl2 0 uM",112.6213% and 99.65%
same,Average % inhibition,"NSC 37408 0.01 uM, CuCl2 0 uM",−6.135%
same,% Activity,[1],90.87% and 88.81%
same,Average % inhibition,[1],10.1605%
same,% Activity,[2],86.05% and 85.2009%
same,Average % inhibition,[2],14.38%
same,% Activity,[3],72.84% and 76.28%
same,Average % inhibition,[3],25.44%
same,% Activity,[4],54.66% and 61.76%
same,Average % inhibition,[4],41.79%
same,% Activity,"NSC 37408 0.01 uM, CuCl2 1 uM",44.58% and 55.7695%
same,Average % inhibition,"NSC 37408 0.01 uM, CuCl2 1 uM",49.82%
same,% Activity,"NSC 37408 0.01 uM, CuCl2 10 uM",19.49% and 20.5%
same,Average % inhibition,"NSC 37408 0.01 uM, CuCl2 10 uM",80.0042%
same,% Activity,"NSC 37408 0.02 uM, CuCl2 0 uM",96.06% and 94.02%
same,Average % inhibition,"NSC 37408 0.02 uM, CuCl2 0 uM",4.963%
same,% Activity,[5],88.1% and 90.5198%
same,Average % inhibition,[5],10.69%
same,% Activity,[6],68.1% and 55.31%
same,Average % inhibition,[6],38.29%
same,% Activity,[7],65.88% and 61.48%
same,Average % inhibition,[7],36.32%
same,% Activity,[8],51.0064% and 59.2161%
same,Average % inhibition,[8],44.89%
same,% Activity,"NSC 37408 0.02 uM, CuCl2 1 uM",56.05% and 43.65%
same,Average % inhibition,"NSC 37408 0.02 uM, CuCl2 1 uM",50.1481%
same,% Activity,"NSC 37408 0.02 uM, CuCl2 10 uM",17.83% and 17.5873%
same,Average % inhibition,"NSC 37408 0.02 uM, CuCl2 10 uM",82.29%
same,% Activity,"NSC 37408 0.2 uM, CuCl2 0 uM",105.3933% and 82.75%
same,Average % inhibition,"NSC 37408 0.2 uM, CuCl2 0 uM",5.927%
same,% Activity,[9],94.36% and 76.52%
same,Average % inhibition,[9],14.5582%
same,% Activity,[10],85.2901% and 82.94%
same,Average % inhibition,[10],15.89%
same,% Activity,"NSC 37408 0.2 uM, CuCl2 0.1 uM",73.85% and 60.05%
same,Average % inhibition,"NSC 37408 0.2 uM, CuCl2 0.1 uM",33.05%
same,% Activity,"NSC 37408 0.2 uM, CuCl2 0.5 uM",64.18% and 61.99%
same,Average % inhibition,"NSC 37408 0.2 uM, CuCl2 0.5 uM",36.91%
same,% Activity,"NSC 37408 0.2 uM, CuCl2 1 uM",56.85% and 54.95%
same,Average % inhibition,"NSC 37408 0.2 uM, CuCl2 1 uM",44.1%
same,% Activity,"NSC 37408 0.2 uM, CuCl2 10 uM",19.46% and 18.13%
same,Average % inhibition,"NSC 37408 0.2 uM, CuCl2 10 uM",81.2011%
same,% Activity,"NSC 37408 1 uM, CuCl2 0 uM",103.1804% and 90.54%
same,Average % inhibition,"NSC 37408 1 uM, CuCl2 0 uM",3.138%
same,% Activity,"NSC 37408 1 uM, CuCl2 0.01 uM",72.59% and 75.01%
same,Average % inhibition,"NSC 37408 1 uM, CuCl2 0.01 uM",26.2%
same,% Activity,"NSC 37408 1 uM, CuCl2 0.05 uM",66.45% and 67.81%
same,Average % inhibition,"NSC 37408 1 uM, CuCl2 0.05 uM",32.87%
same,% Activity,"NSC 37408 1 uM, CuCl2 0.1 uM",65.45% and 59.72%
same,Average % inhibition,"NSC 37408 1 uM, CuCl2 0.1 uM",37.4167%
same,% Activity,"NSC 37408 1 uM, CuCl2 0.5 uM",56.12% and 54.11%
same,Average % inhibition,"NSC 37408 1 uM, CuCl2 0.5 uM",44.88%
same,% Activity,"NSC 37408 1 uM, CuCl2 1 uM",57.76% and 41.6248%
same,Average % inhibition,"NSC 37408 1 uM, CuCl2 1 uM",50.31%
same,% Activity,"NSC 37408 1 uM, CuCl2 10 uM",14.11% and 16.23%
same,Average % inhibition,"NSC 37408 1 uM, CuCl2 10 uM",84.83%
same,% Activity,"NSC 37408 2 uM, CuCl2 0 uM",97.24% and 74.12%
same,Average % inhibition,"NSC 37408 2 uM, CuCl2 0 uM",14.32%
same,% Activity,"NSC 37408 2 uM, CuCl2 0.01 uM",87.55% and 75.89%
same,Average % inhibition,"NSC 37408 2 uM, CuCl2 0.01 uM",18.28%
same,% Activity,"NSC 37408 2 uM, CuCl2 0.05 uM",61.5% and 61.91%
same,Average % inhibition,"NSC 37408 2 uM, CuCl2 0.05 uM",38.3%
same,% Activity,"NSC 37408 2 uM, CuCl2 0.1 uM",62.98% and 55.45%
same,Average % inhibition,"NSC 37408 2 uM, CuCl2 0.1 uM",40.79%
same,% Activity,"NSC 37408 2 uM, CuCl2 0.5 uM",50.79% and 47.45%
same,Average % inhibition,"NSC 37408 2 uM, CuCl2 0.5 uM",50.8784%
same,% Activity,"NSC 37408 2 uM, CuCl2 1 uM",41.16% and 35.42%
same,Average % inhibition,"NSC 37408 2 uM, CuCl2 1 uM",61.71%
same,% Activity,"NSC 37408 2 uM, CuCl2 10 uM",15.32% and 15.04%
same,Average % inhibition,"NSC 37408 2 uM, CuCl2 10 uM",84.82%
same,% Activity,"NSC 37408 20 uM, CuCl2 0 uM",99.79% and 91.1158%
same,Average % inhibition,"NSC 37408 20 uM, CuCl2 0 uM",4.548%
same,% Activity,"NSC 37408 20 uM, CuCl2 0.01 uM",71.91% and 89.68%
same,Average % inhibition,"NSC 37408 20 uM, CuCl2 0.01 uM",19.21%
same,% Activity,"NSC 37408 20 uM, CuCl2 0.05 uM",54.92% and 76.06%
same,Average % inhibition,"NSC 37408 20 uM, CuCl2 0.05 uM",34.51%
same,% Activity,"NSC 37408 20 uM, CuCl2 0.1 uM",49.04% and 30.46%
same,Average % inhibition,"NSC 37408 20 uM, CuCl2 0.1 uM",60.25%
same,% Activity,"NSC 37408 20 uM, CuCl2 0.5 uM",36.6% and 25.36%
same,Average % inhibition,"NSC 37408 20 uM, CuCl2 0.5 uM",69.02%
same,% Activity,"NSC 37408 20 uM, CuCl2 1 uM",25.4789% and 22.77%
same,Average % inhibition,"NSC 37408 20 uM, CuCl2 1 uM",75.88%
same,% Activity,"NSC 37408 20 uM, CuCl2 10 uM",7.426% and 7.089%
same,Average % inhibition,"NSC 37408 20 uM, CuCl2 10 uM",92.74%
same,IC50,"dose-response assay, in presence of 100 nM copper (FIG. 13)",3000 nM
same,capacity to inhibit the proteasome compared with copper chloride alone,"first round of screening (Table 1), compound complexed with copper",better capacity to inhibit the proteasome than copper chloride alone
same,inhibition against the proteasome,"one-dose experiments, 10 μM compound in the presence of 1 μM copper",superior inhibition
same,percent inhibition in the presence of copper versus compound alone,"sub-micromolar copper, triplicate (FIG. 13)",dramatic improvement of percent inhibition
same,inhibition in the absence of copper ion,"various concentrations, no copper (FIG. 10)",little if any inhibition
